According to patent US8088775B2, “Pharmaceutical composition for treating hair loss” (priority 2004, dated 2012):
Where “and” joins values, the source holds several entries; their conditions need not be identical. Equal entries are not always repeated. Structures can show the parent of a compound that is named as a salt. Where two headings read alike, the source gives them in different places.

How the values were obtained:
[1] = system: prostate glands of castrated male SD rats; test: Anti-androgenic active effects in castrated male SD rats: weight of prostate glands after TP or DHTP inducement; format: in vivo; details: for Average weight of prostate glands, prostatic hyperplasia inducement group: hormone alone hypodermic (TP 10 μg or DHTP 20 μg) + vehicle oral; for Average weight of prostate glands, prostatic hyperplasia inducement group / Average weight of prostate glands: one week, solvent control 23.3±1.5 mg; for Weight of prostate glands after inducement with DHTP / Size of prostate glands enlarged by inducement with TP: one week oral
Experimental: In-Vivo Experiment for the Observation of Anti-Androgenic Active Effects of Castrated Male SD Rats (1)
(§1) Each compound is administered orally continuously for one week according to the method of administration shown in Table 1, prostate glands are removed from the rats in each group while watching, and their weights are measured.

[2] = Body weight of castrated male SD rats after one week; details: hormone alone (TP 10 μg or DHTP 20 μg) + vehicle oral, solvent control 122.1
Experimental: as §1

[3] = system: hair loss; details: external application; cited from earlier work
[4] = system: hair loss; details: for Degree of efficacy: 10-20% (number of persons) / Degree of efficacy: 20-40% (number of persons) / Degree of efficacy: 40-60% (number of persons) / Degree of efficacy: 60-80% (number of persons) / Degree of efficacy: Greater than 90% (number of persons) / Degree of efficacy: No effect (number of persons) / Time taken for the efficacy to be shown: 3-5 days (number of persons) / Time taken for the efficacy to be shown: 7 days (number of persons) / Time taken for the efficacy to be shown: 14 days (number of persons) / Time taken for the efficacy to be shown: 21 days (number of persons) / Time taken for the efficacy to be shown: 28 days (number of persons) / Time taken for the efficacy to be shown: Minor effect (number of persons): Example 5 tertiary specimens, tablets three times a day (30 mg=3×10 mg)
Experimental: Clinical Experiment to Study Effects for the Prevention of Hair Loss, and for Hair Toning and Hair Growth (3)
The effects for the prevention of hair loss are investigated by administering the tablets thus manufactured to 5 healthy adult males who are older than 20 years old and selected to be specimens three times a day (30 mg=3×10 mg).

[5] = system: prostate glands of normal male SD rats; test: Anti-androgenic effects in normal male SD rats: weight of prostate glands after 2 weeks; format: in vivo; details: oral; for Average weight of prostate glands: normal 8-week-old male SD rats, solvent control 333.8; for Weight of prostate glands versus solvent control group: normal male SD rats
From the text: In-Vivo Experiment for the Observation of Anti-Androgenic Effects of Normal Male SD Rats (2)
After the experiments are completed, the changes in the weight of prostate glands removed from normal SD rats and the changes in the weight of normal SD rats measured are shown in Tables 4 and 5 and diagrammatized in FIGS. 3 and 4.

[6] = system: hair loss
From the text: Clinical Experiment to Study Effects for the Prevention of Hair Loss, and for Hair Toning and Hair Growth (2)
The effect for the prevention of hair loss is investigated by administering the tablets thus manufactured to 20 healthy adult males who are older than 20 years old and selected to be specimens (including 5 males in the placaebo control group) once a day.

[7] = system: hair loss; details: for Degree of efficacy: 10-20% (number of persons) / Degree of efficacy: 20-40% (number of persons) / Degree of efficacy: 40-60% (number of persons) / Degree of efficacy: 60-80% (number of persons) / Degree of efficacy: Greater than 90% (number of persons) / Degree of efficacy: No effect (number of persons) / Time taken for the efficacy to be shown: 3-5 days (number of persons) / Time taken for the efficacy to be shown: 7 days (number of persons) / Time taken for the efficacy to be shown: 14 days (number of persons) / Time taken for the efficacy to be shown: 21 days (number of persons) / Time taken for the efficacy to be shown: 28 days (number of persons) / Time taken for the efficacy to be shown: Minor effect (number of persons): Example 3 primary specimens, extruded material, 10 mg effective component once a day
From the text: Clinical Experiment to Study Effects for the Prevention of Hair Loss, and for Hair Toning and Hair Growth (1)
The extruded material thus obtained is dried in the floating air layer. The therapeutical efficacy for the prevention of hair loss is experimented clinically by using thus obtained extruded material as shown in Tables 6 and 7. The objects of clinical experiments are selected based on 35 male and female healthy adults older than 20 years old who suffer from symptoms of hair loss. The therapeutical efficacy of female hair loss is also tested as females suffering from hair loss are included in the specimen population (including 5 males in the placebo control group).

[8] = system: hairs; details: Example 6; tablets 10 mg once a day for six months; FIG. 5A/5B
From the text: Clinical Experiments to Study Effects of Epilation
The effects of epilation are investigated by administering the tablets thus manufactured once a day.

[9] = Example 4 secondary specimens, Total, tablets, 10 mg effective component once a day
[10] = Example 3, 10 mg once a day, no effects with placebo

CCC(=O)O[C@H]1CC[C@H]2[C@@H]3CC[C@H]4CC(=O)CC[C@]4(C)[C@H]3CC[C@]12C [DHTP, dihydrotestosterone propionate]
Average weight of prostate glands, prostatic hyperplasia inducement group [1]: 58.4 ± 2.0 mg and 58.4 mg
Average body weight, inducement group [2]: 118.7

Nc1cc(N2CCCCC2)nc(N)[n+]1[O-] [Minoxidil, 6-(1-piperidinyl-2,4-pyrimidineamine-3-oxide)]
Reported side effects [3]: contact dermatitis, dried mouth, lowering of blood pressure, dizziness

CCC(=O)O[C@H]1CC[C@H]2[C@@H]3CCC4=CC(=O)CC[C@]4(C)[C@H]3CC[C@]12C [TP, testosterone propionate]
Average weight of prostate glands, prostatic hyperplasia inducement group [1]: 63.6 ± 3.2 mg and 63.6 mg

O=C(O)COCCN1CCN(C(c2ccccc2)c2ccc(Cl)cc2)CC1 (centres unmarked) [composition of the present invention, 2-[2-[4-[(4-chlorophenyl)phenylmethyl]-1-piperazinyl]ethoxy]-acetic acid dihydrochloride]
Color and thickness of newly produced hairs ([4]; Example 5, tablets 30 mg a day): much stronger than those of old hairs
Effects for the prevention of hair loss ([4]; Example 5, tablets 30 mg a day, 5 people): superior within one week in all of 5 people
Degree of efficacy: 10-20% (number of persons) ([4]; Male (5)): 0
Degree of efficacy: 20-40% (number of persons) ([4]; Male (5)): 0
Degree of efficacy: 40-60% (number of persons) ([4]; Male (5)): 0
Degree of efficacy: 60-80% (number of persons) ([4]; Male (5)): 2
Degree of efficacy: Greater than 90% (number of persons) ([4]; Male (5)): 3
Degree of efficacy: No effect (number of persons) ([4]; Male (5)): 0
Time taken for the efficacy to be shown: 3-5 days (number of persons) ([4]; Male (5)): 0
Time taken for the efficacy to be shown: 7 days (number of persons) ([4]; Male (5)): 5
Time taken for the efficacy to be shown: 14 days (number of persons) ([4]; Male (5)): 0
Time taken for the efficacy to be shown: 21 days (number of persons) ([4]; Male (5)): 0
Time taken for the efficacy to be shown: 28 days (number of persons) ([4]; Male (5)): 0
Time taken for the efficacy to be shown: Minor effect (number of persons) ([4]; Male (5)): 0
Degree of efficacy: 10-20% (number of persons) ([4]; Total (5)): 0
Degree of efficacy: 20-40% (number of persons) ([4]; Total (5)): 0
Degree of efficacy: 40-60% (number of persons) ([4]; Total (5)): 0
Degree of efficacy: 60-80% (number of persons) ([4]; Total (5)): 2
Degree of efficacy: Greater than 90% (number of persons) ([4]; Total (5)): 3
Degree of efficacy: No effect (number of persons) ([4]; Total (5)): 0
Time taken for the efficacy to be shown: 3-5 days (number of persons) ([4]; Total (5)): 0
Time taken for the efficacy to be shown: 7 days (number of persons) ([4]; Total (5)): 5
Time taken for the efficacy to be shown: 14 days (number of persons) ([4]; Total (5)): 0
Time taken for the efficacy to be shown: 21 days (number of persons) ([4]; Total (5)): 0
Time taken for the efficacy to be shown: 28 days (number of persons) ([4]; Total (5)): 0
Time taken for the efficacy to be shown: Minor effect (number of persons) ([4]; Total (5)): 0
Average weight of prostate glands ([1]; DHTP 20 μg hypodermic + drug oral daily (finasteride 0.5 mg, composition 5 mg), dihydrochloride): 52.2 ± 1.1 mg and 52.2 mg
Weight of prostate glands after inducement with DHTP [1]: not greatly affected
Average weight of prostate glands ([1]; TP 10 μg hypodermic + drug oral daily (finasteride 0.5 mg, composition 5 mg), dihydrochloride): 25.1 mg
Size of prostate glands enlarged by inducement with TP [1]: reduced to the normal size
Average weight of prostate glands [5]: 226.7 mg
Weight of prostate glands versus solvent control group [5]: significantly lower
Color and thickness of newly coming out hairs ([6]; Example 4, tablets 10 mg once a day): much stronger than those of old hairs
Effects for the prevention of hair loss ([6]; Example 4, tablets 10 mg once a day, 15 people, no effects with placebo): superior within three weeks in all of 15 people
Degree of efficacy: 10-20% (number of persons) [6, 9]: 0
Degree of efficacy: 20-40% (number of persons) [6, 9]: 0
Degree of efficacy: 40-60% (number of persons) [6, 9]: 5
Degree of efficacy: 60-80% (number of persons) [6, 9]: 9
Degree of efficacy: Greater than 90% (number of persons) [6, 9]: 1
Degree of efficacy: No effect (number of persons) [6, 9]: 0
Time taken for the efficacy to be shown: 3-5 days (number of persons) [6, 9]: 0
Time taken for the efficacy to be shown: 7 days (number of persons) [6, 9]: 1
Time taken for the efficacy to be shown: 14 days (number of persons) [6, 9]: 6
Time taken for the efficacy to be shown: 21 days (number of persons) [6, 9]: 8
Time taken for the efficacy to be shown: 28 days (number of persons) [6, 9]: 0
Time taken for the efficacy to be shown: Minor effect (number of persons) [6, 9]: 0
Effect of prevention of hair loss, time course [7, 10]: hair loss is prevented in almost all specimens in about three weeks
Effects of the prevention of hair loss in males and females [7, 10]: remarkable effects of the prevention of hair loss are observed both in males and females
Degree of efficacy: 10-20% (number of persons) ([7]; Female (10)): 0
Degree of efficacy: 20-40% (number of persons) ([7]; Female (10)): 0
Degree of efficacy: 40-60% (number of persons) ([7]; Female (10)): 3
Degree of efficacy: 60-80% (number of persons) ([7]; Female (10)): 6
Degree of efficacy: Greater than 90% (number of persons) ([7]; Female (10)): 0
Degree of efficacy: No effect (number of persons) ([7]; Female (10)): 1
Time taken for the efficacy to be shown: 3-5 days (number of persons) ([7]; Female (10)): 0
Time taken for the efficacy to be shown: 7 days (number of persons) ([7]; Female (10)): 1
Time taken for the efficacy to be shown: 14 days (number of persons) ([7]; Female (10)): 6
Time taken for the efficacy to be shown: 21 days (number of persons) ([7]; Female (10)): 2
Time taken for the efficacy to be shown: 28 days (number of persons) ([7]; Female (10)): 0
Time taken for the efficacy to be shown: Minor effect (number of persons) ([7]; Female (10)): 1
Degree of efficacy: 10-20% (number of persons) ([7]; Male (20)): 0
Degree of efficacy: 20-40% (number of persons) ([7]; Male (20)): 0
Degree of efficacy: 40-60% (number of persons) ([7]; Male (20)): 6
Degree of efficacy: 60-80% (number of persons) ([7]; Male (20)): 13
Degree of efficacy: Greater than 90% (number of persons) ([7]; Male (20)): 1
Degree of efficacy: No effect (number of persons) ([7]; Male (20)): 0
Time taken for the efficacy to be shown: 3-5 days (number of persons) ([7]; Male (20)): 0
Time taken for the efficacy to be shown: 7 days (number of persons) ([7]; Male (20)): 6
Time taken for the efficacy to be shown: 14 days (number of persons) ([7]; Male (20)): 11
Time taken for the efficacy to be shown: 21 days (number of persons) ([7]; Male (20)): 3
Time taken for the efficacy to be shown: 28 days (number of persons) ([7]; Male (20)): 0
Time taken for the efficacy to be shown: Minor effect (number of persons) ([7]; Male (20)): 0
Degree of efficacy: 10-20% (number of persons) ([7]; Total): 0
Degree of efficacy: 20-40% (number of persons) ([7]; Total): 0
Degree of efficacy: 40-60% (number of persons) ([7]; Total): 9
Degree of efficacy: 60-80% (number of persons) ([7]; Total): 19
Degree of efficacy: Greater than 90% (number of persons) ([7]; Total): 1
Degree of efficacy: No effect (number of persons) ([7]; Total): 1
Time taken for the efficacy to be shown: 3-5 days (number of persons) ([7]; Total): 0
Time taken for the efficacy to be shown: 7 days (number of persons) ([7]; Total): 7
Time taken for the efficacy to be shown: 14 days (number of persons) ([7]; Total): 17
Time taken for the efficacy to be shown: 21 days (number of persons) ([7]; Total): 5
Time taken for the efficacy to be shown: 28 days (number of persons) ([7]; Total): 0
Time taken for the efficacy to be shown: Minor effect (number of persons) ([7]; Total): 1
Effects of epilation (photograph, naked eyes) [8]: considerable effects of epilation

CC(C)(C)NC(=O)[C@H]1CC[C@H]2[C@@H]3CC[C@H]4NC(=O)C=C[C@]4(C)[C@H]3CC[C@]12C [finasteride]
Average weight of prostate glands ([1]; DHTP 20 μg hypodermic + drug oral daily (finasteride 0.5 mg, composition 5 mg)): 53.1 ± 1.4 mg and 53.1 mg
Weight of prostate glands after inducement with DHTP [1]: not greatly affected
Average weight of prostate glands ([1]; TP 10 μg hypodermic + drug oral daily (finasteride 0.5 mg, composition 5 mg)): 24.5 ± 1.6 mg and 24.5 mg
Size of prostate glands enlarged by inducement with TP [1]: reduced to the normal size
Average weight of prostate glands [5]: 220.0 mg
Weight of prostate glands versus solvent control group [5]: significantly lower
